In patent US20260200897A1, “4-((5-(3-(4-(PYRIDIN-2-YL)CYCLOPENTYL)-1H-PYRAZOL-3-YL)AMINO)-BENZENESULFONAMIDE DERIVATIVES AND SIMILAR COMPOUNDS AS CDK INHIBITORS FOR THE TREATMENT OF CANCER” (BeOne Medicines I GmbH, priority 2023, published 2026) one finds IC50 data, which are given here for nine compounds.

One experiment addresses CDK1/Cyclin B1 (Homo sapiens, UniProt P06493). Briefly: CDK1/Cyclin B1 TR-FRET biochemical assay, 0.015 mM ATP. The note with it: 0.15 μM Rb (Ser780)-biotin substrate, 120 min reaction, Table 1. Background: Time-resolved FRET reads energy transfer from a long-lived donor to a nearby acceptor.
Another experiment concerns the target CDK2/Cyclin E1 (Homo sapiens, UniProt P24941). Briefly: CDK2/Cyclin E1 TR-FRET biochemical assay, 0.060 mM ATP. The note with it: 0.15 μM Rb (Ser780)-biotin substrate, 120 min reaction, Table 1.

Each structure is given as a SMILES string.

Chain of CDK1/Cyclin B1 (P06493 whole entry): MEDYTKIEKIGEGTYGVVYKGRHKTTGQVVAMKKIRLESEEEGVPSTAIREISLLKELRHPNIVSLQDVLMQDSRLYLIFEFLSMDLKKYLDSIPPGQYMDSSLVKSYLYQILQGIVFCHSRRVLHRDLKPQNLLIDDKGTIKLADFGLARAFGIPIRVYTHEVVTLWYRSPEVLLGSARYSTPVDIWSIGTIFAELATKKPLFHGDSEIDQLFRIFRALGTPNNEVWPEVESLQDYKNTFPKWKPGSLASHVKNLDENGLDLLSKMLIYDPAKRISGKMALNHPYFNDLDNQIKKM
Chain of CDK1/Cyclin B1 (P14635 whole entry partner): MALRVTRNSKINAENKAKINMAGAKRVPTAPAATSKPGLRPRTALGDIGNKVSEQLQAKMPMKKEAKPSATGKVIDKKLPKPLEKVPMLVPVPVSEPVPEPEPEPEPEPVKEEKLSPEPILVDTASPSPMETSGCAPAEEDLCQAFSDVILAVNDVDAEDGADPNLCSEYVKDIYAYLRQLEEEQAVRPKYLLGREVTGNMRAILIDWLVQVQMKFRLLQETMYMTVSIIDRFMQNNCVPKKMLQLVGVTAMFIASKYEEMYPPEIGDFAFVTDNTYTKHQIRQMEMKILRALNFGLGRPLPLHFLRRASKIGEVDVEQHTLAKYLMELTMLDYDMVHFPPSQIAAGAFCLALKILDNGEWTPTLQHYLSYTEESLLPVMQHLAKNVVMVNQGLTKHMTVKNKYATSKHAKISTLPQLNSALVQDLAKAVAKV

Consider `CC1(n2cnnc2O[C@@H]2CC[C@H](c3cc(Nc4ccc5c(c4F)CNS5(=O)=O)n[nH]3)C2)CC1` (relative stereo) [Example 58, cis-4-fluoro-5-((5-(3-((4-(1-methylcyclopropyl)-4H-1,2,4-triazol-3-yl)oxy)cyclopentyl)-1H-pyrazol-3-yl)amino)-2,3-dihydrobenzo[d]isothiazole 1,1-dioxide], for which the concentration for half-maximal inhibition (IC50) stood at 7200 nM on CDK1/Cyclin B1 and 269 nM at CDK2/Cyclin E1.

Take `CC(C)c1ccnnc1O[C@@H]1CC[C@H](c2cc(Nc3ccc4c(c3F)CNS4(=O)=O)n[nH]2)C1` (relative stereo) [Example 27, cis-4-fluoro-5-((5-(3-((4-isopropylpyridazin-3-yl)oxy)cyclopentyl)-1H-pyrazol-3-yl)amino)-2,3-dihydrobenzo[d]isothiazole 1,1-dioxide]: the half-inhibitory concentration (IC50) was found to be 3.7 nM against CDK1/Cyclin B1 and 0.7 nM on CDK2/Cyclin E1.

As for `O=S1(=O)NCc2c1ccc(Nc1cc([C@H]3CC[C@@H](Oc4nnccc4-c4ccccc4)C3)[nH]n1)c2F` (relative stereo) [Example 31, cis-4-fluoro-5-((5-(3-((4-phenylpyridazin-3-yl)oxy)cyclopentyl)-1H-pyrazol-3-yl)amino)-2,3-dihydrobenzo[d]isothiazole 1,1-dioxide], the IC50 against CDK1/Cyclin B1 was determined as 73 nM; against CDK2/Cyclin E1, 8.5 nM.

Take `CC1(C)CN([C@H]2CC[C@@H](c3cc(Nc4ccc5c(c4F)CNS5(=O)=O)n[nH]3)C2)C(=O)N1` (relative stereo) [Example 85, cis-1-(3-(3-((4-fluoro-1,1-dioxido-2,3-dihydrobenzo[d]isothiazol-5-yl)amino)-1H-pyrazol-5-yl)cyclopentyl)-4,4-dimethylimidazolidin-2-one]: the IC50 at CDK1/Cyclin B1 turned out to be 289 nM; on CDK2/Cyclin E1, 31 nM.

Regarding `Cc1ccncc1O[C@@H]1CC[C@H](c2cc(Nc3ccc4c(c3F)CNS4(=O)=O)n[nH]2)C1` (relative stereo) [Example 42, cis-4-fluoro-5-((5-(3-((4-methylpyridin-3-yl)oxy)cyclopentyl)-1H-pyrazol-3-yl)amino)-2,3-dihydrobenzo[d]isothiazole 1,1-dioxide], the IC50 was 531 nM against CDK1/Cyclin B1 and 171 nM against CDK2/Cyclin E1.

`C=C(C)c1ccncc1O[C@@H]1CC[C@H](c2cc(Nc3ccc4c(c3F)CNS4(=O)=O)n[nH]2)C1` (relative stereo) [Example 43, cis-4-fluoro-5-((5-(3-((4-(prop-1-en-2-yl)pyridin-3-yl)oxy)cyclopentyl)-1H-pyrazol-3-yl)amino)-2,3-dihydrobenzo[d]isothiazole 1,1-dioxide]: the figures for the IC50 at CDK1/Cyclin B1 and against CDK2/Cyclin E1 were 58 nM and 4.3 nM, respectively.

`CC(C)(C)c1cn[nH]c1O[C@@H]1CC[C@H](c2cc(Nc3ccc4c(c3F)CNS4(=O)=O)n[nH]2)C1` (relative stereo) [Example 61, cis-5-((5-(3-((4-(tert-butyl)-1H-pyrazol-5-yl)oxy)cyclopentyl)-1H-pyrazol-3-yl)amino)-4-fluoro-2,3-dihydrobenzo[d]isothiazole 1,1-dioxide]: the IC50 against CDK1/Cyclin B1 amounted to 56 nM; at CDK2/Cyclin E1, 1 nM.

For `O=S1(=O)NCc2c1ccc(Nc1cc([C@H]3CC[C@@H](Oc4cc(C(F)(F)F)n[nH]4)C3)[nH]n1)c2F` (relative stereo) [Example 69, cis-4-fluoro-5-((5-(3-((3-(trifluoromethyl)-1H-pyrazol-5-yl)oxy)cyclopentyl)-1H-pyrazol-3-yl)amino)-2,3-dihydrobenzo[d]isothiazole 1,1-dioxide], the IC50 against CDK1/Cyclin B1 was greater than 10000 nM; against CDK2/Cyclin E1 it was 829 nM.

Consider `O=S1(=O)NCc2c1ccc(Nc1cc([C@H]3CC[C@@H](Oc4nnccc4C4CCC4)C3)[nH]n1)c2F` (relative stereo) [Example 35, cis-5-((5-(3-((4-cyclobutylpyridazin-3-yl)oxy)cyclopentyl)-1H-pyrazol-3-yl)amino)-4-fluoro-2,3-dihydrobenzo[d]isothiazole 1,1-dioxide], for which the IC50 against CDK1/Cyclin B1 stood at 35 nM; against CDK2/Cyclin E1, 2.6 nM.

One may read the IC50 as the point on the concentration scale where inhibition reaches its midpoint.
